Tests used:
mice = test: Porsolt's swim test (Behavioural Despair Test); assay type: in vivo; conditions: for Duration of immobility ± Standard Error of Mean: 30 minutes before the test, last 4 of 6 minutes
Experimental: The “Behavioural Despair Test” or “Porsolt's Forced Swim Test” is a validated animal model for depression (see T. Nagatsu, NeuroToxicology 2004, 25, 11-20, especially p. 16, right column in the middle, in combination with Porsolt et al., Arch. Int. Pharmacodyn. 1977, 229, 327-336). It responds to enhancement of the transmission of several neurotransmitters including serotonine, dopamine and noradrenaline.
The test, which detects antidepressant activity, was carried out as described by Porsolt et al. in Arch. Int. Pharmacodyn. 1977, 229, 327-336. Mice which are forced to swim in a situation from which they cannot escape rapidly become immobile. Antidepressants decrease the duration of immobility.
Mice were individually placed in a cylinder (Height=24 cm, Diameter=13 cm) containing 10 cm water (22° C.) from which they could not escape. The mice were placed in the water for 6 minutes and the duration of immobility during the last 4 minutes was measured.
10 mice were studied per each of the four groups. The test was performed blind, i.e. the person carrying out the experiment was different from the person injecting the mice and didn't thus know to which of the four groups each mouse belonged.
Obliquin was evaluated at 3 doses each: at 10, 30, and 80 mg/kg body weight, administered intraperitonally 30 minutes before the test, and compared with a control group. The thus administered obliquin was dissolved in a saline solution containing 3 weight-% DMSO and 3 weight-% Tween® 80 (so called “vehicle”). To the control group the vehicle consisting of the saline solution containing 3 weight-% DMSO and 3 weight-% Tween® 80 was administered intraperitonally.
Data were analyzed by comparing the treated groups with the control group using the unpaired Student's T tests and Analysis of Variance (ANOVA).

[1] = target: human serotonin re-uptake transporter (hSERT) (Homo sapiens, UniProt P31645); test: Labeled citalopram displacement from hSERT containing membranes (SPA); assay type: binding; conditions: hSERT containing membranes; Ki from IC50 by Cheng-Prusoff; 3.3 nM (3H) citalopram; read-out: Inhibition constant Ki for tritiated citalopram displacement
Experimental: Membranes containing hSERT were prepared from the above cell line according to Galli et al, Journal of Experimental Biology 1995, 198, 2197-2212. 3 μg of membrane protein and 0.8 mg of wheat germ aglutinin coated SPA® (scintillation proximity assay) beads (Amersham Biosciences GE Healthcare, Slough, UK) per data point were mixed with radio-labeled (3H) citalopram (Amersham Biosciences GE Healthcare, Slough, UK) until a final concentration of 3.3 nM in 50 mM Tris-HCl, 300 mM NaCl (pH 7.4). After incubation for 18 hours at room temperature, the bound citalopram was quantified by liquid scintillation counting.
The effect of the coumarin ethers of formula I on the serotonin uptake and the citalopram binding was determined by its inclusion in the assay at a range of concentrations between 0.03 and 100 μM for 10 minutes prior to and during the addition of (3H) serotonin/citalopram. Serotonin uptake via the transporter and citalopram binding were both inhibited by the coumarin ethers of formula I in a dose dependent manner. The calculated inhibition constants Ki, derived from the measured IC50 using the Cheng—Prusoff equation (Y. C. Cheng, W. H. Prusoff, Biochem. Pharmacol. 1973, 22, p. 3099-3108), for inhibition of serotonin uptake and citalopram binding by coumarin ethers of the formula I are shown in Table 1.

MAO-B = target: T1, MAO-B (Homo sapiens, UniProt P27338); test: MAO-B inhibition, Amplex Red Monoamine Oxidase Assay Kit, colorimetric; assay type: biochemical
T1 construct: purchased Sigma M7441
T1 sequence (P27338 1-520): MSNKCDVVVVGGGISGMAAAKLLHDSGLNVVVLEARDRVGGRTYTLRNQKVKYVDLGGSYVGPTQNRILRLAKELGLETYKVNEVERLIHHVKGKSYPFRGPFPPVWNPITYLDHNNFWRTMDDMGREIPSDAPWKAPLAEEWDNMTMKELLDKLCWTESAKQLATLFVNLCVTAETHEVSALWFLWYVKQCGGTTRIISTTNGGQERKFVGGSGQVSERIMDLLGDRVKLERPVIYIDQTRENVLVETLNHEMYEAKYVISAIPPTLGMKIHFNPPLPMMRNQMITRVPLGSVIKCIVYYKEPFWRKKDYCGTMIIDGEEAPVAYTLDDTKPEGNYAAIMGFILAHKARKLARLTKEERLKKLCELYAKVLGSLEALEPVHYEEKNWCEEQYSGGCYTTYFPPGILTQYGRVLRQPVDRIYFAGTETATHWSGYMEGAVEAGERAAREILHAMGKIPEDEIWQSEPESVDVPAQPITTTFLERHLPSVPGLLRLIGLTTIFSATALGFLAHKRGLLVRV
Experimental: From a stock solution of 0.0405 g of racemic obliquin (92.5%; equal to 37.5 mg of pure compound) in 750 μl of dimethylsulfoxide (DMSO), working solutions were prepared with a concentration of obliquin of 4. 10^−4M in reaction buffer (0.05 M sodium phosphate, pH 7.4, 0.2% DMSO). The final concentrations of obliquin in the test system were 10^−4 M, 10^−5 M, 10^−6 M, 10^−7 M.
For determining the inhibition of monoaminoxidases' activity, the Amplex Red Monoamine Oxidase Assay Kit (Molecular Probes Nr._A-12214, Colorimetric version) was conducted according to manufacturers instructions.
As substrates for MAO-A enzyme (Sigma Nr. M7316) p-tyramine and as substrate for MAO-B enzyme (Sigma Nr. M7441) benzylamine were used. The concentration of MAO-A enzyme was 8 Units/ml, and that of MAO-B 4 Units/ml in the working solution.
MAO-A and MAO-B Assay, Colorimetric Version:
For the assay, 50 μl of each working solution (see above) were used. As control solution, the obliquin containing working solution was replaced by 50 μl of the reaction buffer.
50 μl of diluted MAO-A with a final concentration of 2 Units/ml and 50 μl of diluted MAO-B with a final concentration of 1 Unit/ml, respectively, were added.
100 μl of the Amplex solution containing horseradish peroxidase (2 U/ml) and the substrate tyramine (for MAO-A) or the substrate benzylamine (for MAO-B) were added.
To allow a subtraction of the background absorption a mixture of 100 μl of the Amplex solution and 100 μl of the reaction buffer was measured as a “blank”.
The samples were incubated at room temperature in the dark for 1 hour, and then the extinction at 535 nm determined in a Softmax Microplate photometer (Molecular Device).

human serotonin re-uptake transporter (hSERT), sequence (P31645 whole entry): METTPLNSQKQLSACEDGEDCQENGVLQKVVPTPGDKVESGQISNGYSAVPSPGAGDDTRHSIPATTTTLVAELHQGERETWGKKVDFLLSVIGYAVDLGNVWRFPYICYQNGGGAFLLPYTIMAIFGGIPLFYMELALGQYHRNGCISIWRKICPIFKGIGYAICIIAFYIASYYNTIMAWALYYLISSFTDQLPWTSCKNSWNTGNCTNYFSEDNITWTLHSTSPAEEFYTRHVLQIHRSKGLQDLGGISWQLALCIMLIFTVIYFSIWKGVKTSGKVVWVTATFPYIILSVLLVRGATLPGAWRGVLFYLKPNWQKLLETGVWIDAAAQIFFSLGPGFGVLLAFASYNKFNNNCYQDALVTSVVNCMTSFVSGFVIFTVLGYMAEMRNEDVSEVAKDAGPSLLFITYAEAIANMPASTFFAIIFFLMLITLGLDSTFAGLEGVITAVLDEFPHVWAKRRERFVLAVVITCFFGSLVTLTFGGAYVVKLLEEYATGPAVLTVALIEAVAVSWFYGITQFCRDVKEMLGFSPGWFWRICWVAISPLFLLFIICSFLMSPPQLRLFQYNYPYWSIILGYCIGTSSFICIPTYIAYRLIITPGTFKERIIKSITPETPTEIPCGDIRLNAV

SMILES: C=C(C)[C@H]1COc2cc3oc(=O)ccc3cc2O1 (racemic) [Obliquin, obliquin]
- Duration of immobility ± Standard Error of Mean (mice; mice, 10 mg/kg body weight i.p.): 170.4 ± 11.1 s
- Duration of immobility ± Standard Error of Mean (mice; mice, 30 mg/kg body weight i.p.): 150.9 ± 9.6 s
- Duration of immobility ± Standard Error of Mean (mice; mice, 80 mg/kg body weight i.p., p < 0.01 vs control): 132.1 ± 10.5 s
- Dose dependence of effect on immobility time (mice; mice, 10, 30, 80 mg/kg i.p., ANOVA p<0.05): significant dose dependent effect
- Reduction of immobility time (mice; mice, highest dose group (80 mg/kg i.p.), vs control group): 25%
- Ki [1]: 6.1 µM
- MAO inhibition specificity MAO-B versus MAO-A (MAO-B; compared with MAO-A): higher specificity for MAO-B than for MAO-A
- inhibition at 0.1 µM (MAO-B; obliquin 1 x 10^−7 M, substrate benzylamine): 8.3%
- inhibition at 1 µM (MAO-B; obliquin 10 x 10^−7 M, substrate benzylamine): 33.3%
- inhibition at 10 µM (MAO-B; obliquin 100 x 10^−7 M, substrate benzylamine): 76.9%
- inhibition at 100 µM (MAO-B; obliquin 1000 x 10^−7 M, substrate benzylamine): 91.5%

Source: US8044094B2, “Agents for preventing and treating disorders connected to impaired neurotransmission” (DSM IP Assets B.V., priority 2004, dated 2011)
